The source of these data is ChEMBL document CHEMBL4359906, “Design and synthesis of new N-terminal fatty acid modified-antimicrobial peptide analogues with potent in vitro biological activity” (Eur J Med Chem, 2019).

What is called MIC is the least concentration at which growth counts as inhibited.

Molecules are shown by their SMILES. Converted amounts (≈) assume the structure as drawn. The source made the active and inactive calls. The rule behind the calls is not given here.

Data set [1] concerns Escherichia coli. The experiment in a line: Antibiofilm activity against Escherichia coli ATCC 25922 assessed as reduction in biofilm inhibition at MIC after 24 hrs by crystal violet staining based assay relative to control. The class given is functional.
In data set [2] the test system is Escherichia coli. The experiment in a line: Antibacterial activity against Escherichia coli ATCC 25922 after 18 hrs in presence of MgCl2 by CLSI based broth microdilution method (reference value: 8 microM). It is filed as functional. To be noted: ATCC 25922, 18 h. (In general: Dilution methods test growth across graded concentrations, often in twofold steps.)
Data set [3] relates to Escherichia coli. Briefly: Antibacterial activity against Escherichia coli ATCC 25922 after 18 hrs in presence of KCl by CLSI based broth microdilution method (reference value: 8 microM). It is filed as functional. The note with it: ATCC 25922, 18 h.
In data set [4] the test system is Staphylococcus aureus. The experiment in a line: Ratio of antibacterial activity against Staphylococcus aureus ATCC 25923 in presence of MgCl2 to antibacterial activity against Staphylococcus aureus ATCC 25923. It is filed as functional.
The subject of data set [5] is Escherichia coli. Briefly: Ratio of MIC for Escherichia coli ATCC 25922 preincubated for 6 hrs in presence of 10% mouse serum and measured after 18 hrs to MIC for antibacterial activity against Escherichia coli ATCC 25922 after 18 hrs. The class given is functional.
The test system of data set [6] is Staphylococcus aureus. Briefly: Antibacterial activity against Staphylococcus aureus ATCC 25923 after 18 hrs in presence of KCl by CLSI based broth microdilution method (reference value: 8 microM). To be noted: ATCC 25923, 18 h. The class given is functional.
Data set [7] has as its system Escherichia coli. Briefly: Induction of ROS generation in Escherichia coli ATCC 25922. It is filed as functional, organism-based.
In data set [8] the test system is Escherichia coli. The experiment in a line: Antimicrobial activity against Escherichia coli ATCC 25922 preincubated for 1 hr in presence of 10% mouse serum and measured after 18 hrs by CLSI-based broth microdilution assay (reference value: 8 microM). The class given is functional.
The test system of data set [9] is Staphylococcus aureus. Briefly: Antibacterial activity against Staphylococcus aureus ATCC 25923 after 18 hrs in presence of FeCl3 by CLSI based broth microdilution method (reference value: 8 microM). The class given is functional. The note with it: ATCC 25923, 18 h.
Data set [10] has as its system Escherichia coli. Briefly: Antibiofilm activity against Escherichia coli ATCC 25922 at 2 times MIC after 24 hrs by crystal violet staining based assay. It is filed as functional, organism-based.
Data set [11] relates to Staphylococcus aureus. The experiment in a line: Antibacterial activity against Staphylococcus aureus ATCC 25923 after 18 hrs in presence of MgCl2 by CLSI based broth microdilution method (reference value: 8 microM). The class given is functional. To be noted: ATCC 25923, 18 h.
The subject of data set [12] is Escherichia coli. The experiment in a line: Antibacterial activity against Escherichia coli ATCC 25922 after 18 hrs in presence of FeCl3 by CLSI based broth microdilution method (reference value: 8 microM). The class given is functional. To be noted: ATCC 25922, 18 h.
For data set [13], the system named is Escherichia coli. Briefly: Antibacterial activity against Escherichia coli ATCC 25922 after 18 hrs in presence of NaCl by CLSI based broth microdilution method (reference value: 8 microM). It is filed as functional. To be noted: ATCC 25922, 18 h.
Data set [14] concerns Escherichia coli. Briefly: Disruption of membrane integrity in Escherichia coli ATCC 25922 assessed as membrane damage by measuring PI fluorescence incubated for 1 hr by PI dye based flow cytometric analysis. The class given is functional, organism-based. For orientation: In flow cytometry, cells or beads pass a laser one at a time.
Another data set deals with Bacillus subtilis. The experiment in a line: Antibacterial activity against Bacillus subtilis ATCC 23857 after 18 hrs by CLSI based broth microdilution method. It is filed as functional. The note with it: ATCC 23857, 18 h.
The test system of data set [15] is Staphylococcus aureus. The experiment in a line: Antibacterial activity against Staphylococcus aureus ATCC 25923 after 18 hrs in presence of NaCl by CLSI based broth microdilution method (reference value: 8 microM). The class given is functional. The note with it: ATCC 25923, 18 h.
Data set [16] has as its system Escherichia coli. The experiment in a line: Antimicrobial activity against Escherichia coli ATCC 25922 preincubated for 6 hrs in presence of 10% mouse serum and measured after 18 hrs by CLSI-based broth microdilution assay (reference value: 8 microM). It is filed as functional.
Data set [17] has as its system Staphylococcus aureus. Briefly: Antibiofilm activity against Staphylococcus aureus ATCC 25923 at 1 to 2 times of MIC after 24 hrs by crystal violet staining based assay. It is filed as functional, organism-based.
A short description of data set [18]: Cytotoxicity against mouse RAW264.7 cells assessed as cell proliferation at 4 uM after 1 hr by MTT assay relative to control. It is filed as cell-based. To be noted: read-out: Activity.
Data set [19] is described as follows: Hemolytic activity in human RBC at 256 uM measured after 1 hr by microplate reader analysis relative to control. The class given is ADME, cell-based, Erythrocyte. To be noted: human red blood cells (erythrocytes), read-out: Activity.
Data set [20] has as its system Staphylococcus aureus. The experiment in a line: Antibacterial activity against Staphylococcus aureus ATCC 25923 after 18 hrs in presence of FeCl3 by CLSI based broth microdilution method (reference value: 64 microM). It is filed as functional. To be noted: ATCC 25923, 18 h.
The test system of data set [21] is Escherichia coli. The experiment in a line: Antibacterial activity against Escherichia coli ATCC 25922 after 18 hrs in presence of KCl by CLSI based broth microdilution method (reference value: 4 microM). The class given is functional. The note with it: ATCC 25922, 18 h.

As to `CCCCCCCCCCCC(=O)NC(Cc1cn(CCCC[C@H](NC(C)=O)C(=O)NCC(=O)N[C@@H](CC(C)C)C(=O)N[C@@H](CC(C)C)C(=O)N[C@H](CCCCN)C(=O)N[C@@H](CCCNC(=N)N)C(=O)N[C@H](C(=O)N[C@H](CCCCN)C(=O)N[C@H](C(=O)N[C@@H](CC(C)C)C(=O)N[C@@H](CC(C)C)C(N)=O)[C@@H](C)O)[C@@H](C)CC)nn1)C(=O)NCC(=O)N[C@@H](CC(C)C)C(=O)N[C@@H](CC(C)C)C(=O)N[C@H](CCCCN)C(=O)N[C@@H](CCCNC(=N)N)C(=O)N[C@H](C(=O)N[C@H](CCCCN)C(=O)N[C@H](C(=O)N[C@@H](CC(C)C)C(=O)N[C@@H](CC(C)C)C(N)=O)[C@@H](C)O)[C@@H](C)CC` (some centres undefined), the “inhibition (INH)” value in the data set with Escherichia coli [1] was greater than 50%. For the same compound, the MIC was 32 µM with Escherichia coli [2]; 16 µM in the data set on Escherichia coli [3]; 16 µM with Staphylococcus aureus [6]; 16 µM in the data set on Escherichia coli [8]; 16 µM with Staphylococcus aureus [9]; 8 µM in the data set with Staphylococcus aureus [11]. The MIC in the data set on Escherichia coli [12] turned out to be 4 µM; with Escherichia coli [13], 16 µM; in the data set with Bacillus subtilis, 2 µM (≈ 5.56 µg/mL); in the data set on Staphylococcus aureus [15], 8 µM; with Escherichia coli [16] it was 32 µM. Also, the Ratio is recorded as 2 - 4 in the data set on Staphylococcus aureus [4] and 4 in the data set with Escherichia coli [5]. Moreover, the outcome with Escherichia coli [7] was inactive. Also, the inhibition entry with Escherichia coli [10] and in the data set with Staphylococcus aureus [17] was “Active” in each case. In the data set on Escherichia coli [14], the Activity entry is “Dose-dependent effect”. Further, the viability at 1 h, 4 µM in [18] was less than 80%.

Regarding `CCCCCC(=O)NC(Cc1cn(CCCC[C@H](NC(C)=O)C(=O)NCC(=O)N[C@@H](CC(C)C)C(=O)N[C@@H](CC(C)C)C(=O)N[C@H](CCCCN)C(=O)N[C@@H](CCCNC(=N)N)C(=O)N[C@H](C(=O)N[C@H](CCCCN)C(=O)N[C@H](C(=O)N[C@@H](CC(C)C)C(=O)N[C@@H](CC(C)C)C(N)=O)[C@@H](C)O)[C@@H](C)CC)nn1)C(=O)NCC(=O)N[C@@H](CC(C)C)C(=O)N[C@@H](CC(C)C)C(=O)N[C@H](CCCCN)C(=O)N[C@@H](CCCNC(=N)N)C(=O)N[C@H](C(=O)N[C@H](CCCCN)C(=O)N[C@H](C(=O)N[C@@H](CC(C)C)C(=O)N[C@@H](CC(C)C)C(N)=O)[C@@H](C)O)[C@@H](C)CC` (some centres undefined), in the data set on Escherichia coli [1], the “inhibition (INH)” value is recorded as greater than 50%. Moreover, the MIC in the data set on Escherichia coli [2] worked out at 16 µM; with Escherichia coli [3], 16 µM; in the data set on Escherichia coli [8], 8 µM; in the data set on Escherichia coli [12], 4 µM; in the data set on Escherichia coli [13], 32 µM; with Bacillus subtilis it was 4 µM (≈ 10.8 µg/mL). For the same compound, the minimal inhibitory concentration (MIC) in the data set on Staphylococcus aureus [20] was 32 µM; in the data set with Escherichia coli [16], 16 µM. The Ratio in the data set on Staphylococcus aureus [4] is 2 - 4; in the data set with Escherichia coli [5], 2. In addition, the result in the data set with Escherichia coli [7] was inactive. In addition, the inhibition entry in the data set on Escherichia coli [10] and with Staphylococcus aureus [17] was “Active” each time. The hemolysis at 1 h, 256 µM in [19] is less than 5%. Besides, the Activity result in the data set on Escherichia coli [14] is “Dose-dependent effect”.

In the case of `CCCCCCCCCC(=O)NC(Cc1cn(CCCC[C@H](NC(C)=O)C(=O)NCC(=O)N[C@@H](CC(C)C)C(=O)N[C@@H](CC(C)C)C(=O)N[C@H](CCCCN)C(=O)N[C@@H](CCCNC(=N)N)C(=O)N[C@H](C(=O)N[C@H](CCCCN)C(=O)N[C@H](C(=O)N[C@@H](CC(C)C)C(=O)N[C@@H](CC(C)C)C(N)=O)[C@@H](C)O)[C@@H](C)CC)nn1)C(=O)NCC(=O)N[C@@H](CC(C)C)C(=O)N[C@@H](CC(C)C)C(=O)N[C@H](CCCCN)C(=O)N[C@@H](CCCNC(=N)N)C(=O)N[C@H](C(=O)N[C@H](CCCCN)C(=O)N[C@H](C(=O)N[C@@H](CC(C)C)C(=O)N[C@@H](CC(C)C)C(N)=O)[C@@H](C)O)[C@@H](C)CC` (some centres undefined), the “inhibition (INH)” value with Escherichia coli [1] is listed as greater than 50%. The minimal inhibitory concentration (MIC) in the data set on Escherichia coli [2] was found to be 16 µM; with Escherichia coli [3], 16 µM; with Staphylococcus aureus [6], 16 µM; in the data set with Escherichia coli [8], 8 µM; with Staphylococcus aureus [9] it was 8 µM; with Staphylococcus aureus [11] it was 4 µM. For the same compound, the MIC in the data set on Escherichia coli [12] was found to be 4 µM; in the data set on Escherichia coli [13] it was 8 µM; against Bacillus subtilis, 2 µM (≈ 5.51 µg/mL); with Staphylococcus aureus [15], 8 µM; with Escherichia coli [16], 16 µM. The Ratio in the data set with Staphylococcus aureus [4] is listed as 2 - 4; with Escherichia coli [5], 2. Moreover, the result with Escherichia coli [7] was inactive. The inhibition result in the data set with Escherichia coli [10] and in the data set with Staphylococcus aureus [17] was “Active” each time. Further, the Activity entry with Escherichia coli [14] is “Dose-dependent effect”. Moreover, in data set [18], the viability at 1 h, 4 µM was less than 80%.

As to `CCCCCCCC(=O)NC(Cc1cn(CCCC[C@H](NC(C)=O)C(=O)NCC(=O)N[C@@H](CC(C)C)C(=O)N[C@@H](CC(C)C)C(=O)N[C@H](CCCCN)C(=O)N[C@@H](CCCNC(=N)N)C(=O)N[C@H](C(=O)N[C@H](CCCCN)C(=O)N[C@H](C(=O)N[C@@H](CC(C)C)C(=O)N[C@@H](CC(C)C)C(N)=O)[C@@H](C)O)[C@@H](C)CC)nn1)C(=O)NCC(=O)N[C@@H](CC(C)C)C(=O)N[C@@H](CC(C)C)C(=O)N[C@H](CCCCN)C(=O)N[C@@H](CCCNC(=N)N)C(=O)N[C@H](C(=O)N[C@H](CCCCN)C(=O)N[C@H](C(=O)N[C@@H](CC(C)C)C(=O)N[C@@H](CC(C)C)C(N)=O)[C@@H](C)O)[C@@H](C)CC` (some centres undefined), in the data set with Escherichia coli [1], the “inhibition (INH)” value is reported as greater than 50%. The Ratio in the data set with Staphylococcus aureus [4] is 2 - 4; in the data set with Escherichia coli [5], 4. In addition, the MIC is 16 µM in the data set on Escherichia coli [21] and 2 µM (≈ 5.45 µg/mL) against Bacillus subtilis. In addition, in the data set on Escherichia coli [7], the result was inactive. Besides, the inhibition entry with Escherichia coli [10] and in the data set on Staphylococcus aureus [17] was “Active” in each case. For the same compound, in [19], the hemolysis at 1 h, 256 µM is less than 5%. For the same compound, the Activity entry in the data set on Escherichia coli [14] was “Dose-dependent effect”.
